Assay results as given in patent EP4653001A1, “TREATMENT, DIAGNOSIS AND/OR PROGNOSIS OF MITOCHONDRIAL DISEASES” (Universidad Autónoma de Madrid, priority 2024, dated 2025).

Columns and labels:
primary neurons [1] = test: Neuronal death; assay type: cell-based, mouse; settings: CI inhibition
primary neurons [2] = test: Intracellular calcium mobilization (excitability) assay; assay type: cell-based, mouse; settings: CI inhibition
Protocol: Neuronal functionality was measured by the Rhod-4 No Wash Calcium Assay Kit (Abcam, Cat No. ab112157), following the manufacturer's instructions for intracellular calcium assay. In short, culture medium was removed, and Rhod-4 dye containing buffer was gently added to cells, followed by incubation at 37 degrees for 30 min followed by 20 min at room temperature. For imaging and quantification of intracellular calcium mobilization, confocal images were acquired using a Zeiss LSM800 confocal microscope (Jena, Alemania) enabled with a 10X objective. Time lapse images of the confocal scan were acquired every 0.5 second over a ten-minute period. Neuronal cultures were treated with 100mM KCl (final concentration) added after the first 4 minutes to establish a baseline and observe the steady- state changes in calcium mobilization in response to the treatment. Acquired confocal images were post-processed using the free and open-source Fiji image processing software. Fluorescent intensity changes were quantified using fixed parameters across the entire set of captured images.

mouse cortical neurons = test: PPP activity measurement in cortical neurons; assay type: cell-based
Protocol: Primary cultures of C57BL/6 mouse cortical neurons were prepared from embryos between embryonic days 16.5 and 17.5 and seeded onto pre-treated plates coated with Poly-L-lysine hydrobromide (500 µg/ml). We used Neurobasal medium without D-glucose and sodium pyruvate (ThermoFisher) to modulate D-glucose levels, depending on the experiment (2.5 mM, 5 mM, or 25 mM).
The determination of pentose-phosphate pathway (PPP) activity was conducted by assessing the difference between 14CO2 production from 1-14C-glucose, which decarboxylates through the 6-phosphogluconate dehydrogenase-catalyzed reaction, and that of 6-^14C-glucose, which decarboxylates through the tricarboxylic acid cycle.
Increased lactate secretion is considered a good indicator of enhanced glycolytic rates, which is a common feature of ETC-inhibited cells as they switch from OXPHOS to glycolysis to maintain ATP levels. […] We culture 143B cells in the presence of Piericidin for 24 h and PPP activity and lactate release, as a proxy of glycolysis, were measured. As expected, lactate detection in the media was higher in CI-inhibited cells. […] Next, we wonder if in this context, glucose can be overused by glycolysis and therefore diverted away from the PPP. Diseases associated with impaired mitochondrial function negatively impact high energy demanding tissues such as the brain. As such, neurons that are highly sensitive to ETC inhibition also rely strongly on glucose metabolism. Thus, we used mouse cortical neurons to determine the rates of glycolysis and PPP as glucose levels become limiting. Control and Piericidin treated neurons where cultured in media containing supraphysiological (25 mM), physiological (5 mM) or subphysiological concentrations of glucose (2,5 mM). […] Decreased PPP activity under low glucose (2,5 mM) correlated with a rapid decline in NADPH/NADP+ levels in CI-inhibited cells. Conversely, glucose availability had no effect on ATP levels at this timepoint.

cortical neurons = test: ATP measurement in live neurons (FRET ATP biosensor); assay type: cell-based, rats; settings: soma or axons, 100 nM, 24 h
Protocol: ATP measurements was performed in primary co-cultures of cortical neurons and astrocytes from P1-2 wild-type rats of the Sprague-Dawley strain Crl:CD(SD), which are bred by Charles River Laboratories following the international genetic standard protocol (IGS). All experiments were carried out in strict accordance with the guidelines of the European Directive 2010/63/EU and the French Decree n° 2013- 118 concerning the protection of animals used for scientific purposes. Neurons were plate on poly- ornithine (Sigma-Aldrich, P3655) coated coverslips and maintained in culture media composed by MEM (Thermo Fisher Scientific, 51200-046), 20 mM Glucose (Sigma-Aldrich, G8270), 0.1 mg/mL transferrin (Sigma-Aldrich, 616420), 1% Glutamax (Thermo Fisher Scientific, 35050-038), 24 µg/mL insulin (Sigma-Aldrich, I6634), 5% FBS (Thermo Fisher Scientific, 10082-147), 2% N-21 (Bio-techne, AR008) and 4µM cytosine β-d-arabinofuranoside (Sigma-Aldrich, C6645). Cultures were incubated at 37°C in 95% air / 5% CO 2 humidified incubator.
Neurons were transfected at DIV 8 with ATeam1.03-nD/nA/pcDNA3 (gift from Takeharu Nagai (Addgene plasmid # 51958; http://n2t.net/addgene:51958; RRID:Addgene_51958)) and imaged at DIV 19. […] Fluorescence emission from ATeam was imaged using a FS 78 HE Dual camera; the exposure times were 250 ms for CFP and YFP images. […]

astrocytes = test: NADPH/NADP+ levels in astrocytes; assay type: cell-based, mouse
Protocol: Primary cultures of C57BL/6 mouse cortical astrocytes were derived from postnatal day 2-3 pups. They were plated on pre-treated dishes coated with Poly-L-lysine (100 µg/ml) and cultured in DMEM/F-12 (ThermoFisher) supplemented with 15% FBS and 1% penicillin/streptomycin (P/S). After 24 hours of plating, the medium was switched to 10% FBS.
The NADP/NADP-Glo™ Assay (Promega) was employed to assess the NADP/NADPH ratio in cultured cells, following the manufacturer's instructions (Technical Bulletin Number TM400). This bioluminescent assay can detect both total oxidized and reduced nicotinamide adenine dinucleotide phosphates (NADP+ and NADPH) and determine their ratio.
Cells were cultured in 24-well plates (Falcon®) at varying concentrations depending on the cell type and the specific experiment. After removing the media, we added 100 µl of PBS 1X per well and lysed the cells by introducing 100 µl of a base solution with 1% DTAB (1:1 ratio). To adapt the volumes for a 96-well plate, we divided the 200 µl total into two parts, allocating 50 µl for measuring NADP+ and 50 µl for NADPH in separate positions on the plate, allowing us to measure both NADP and NADPH levels. The assay was then carried out as per the standard protocol. Luminescence was measured using the CLARIOstar Plus plate reader from BMG LABTECH.

In the case of CC=C(C)C(O)C(C)C=C(C)C=CCC(C)=CCc1nc(OC)c(OC)c(O)c1C (centres unmarked) [Piericidin, Piericidin A], the neuronal death (primary neurons [1]) is reported as “did not correspond to an increase”, the excitability response (primary neurons [2]) is reported as “diminished” and the PPP activity (mouse cortical neurons; 5 mM glucose, did not reach statistical significance) is reported as “trend towards reduced PPP activity”. The PPP activity (mouse cortical neurons; limited glucose availability (2,5 mM), 100 nM, 16 h) was “prominent drop”, the PPP activity (mouse cortical neurons; neurons cultured in 25 mM glucose, 100 nM, 16 h) was “significantly upregulation” and the “ATP (genetically encoded biosensor)” value (cortical neurons) was “did not altered”. For the same compound, the “levels of NADPH” value (astrocytes; PC and ME1 knockdown astrocytes, 100nM, 96 h) was “reduced” and the NADPH levels (astrocytes; astrocytes, 100 nM, 24 h) was “did not cause any alteration”.
